Test results from patent US20100075907A1, “NEUROMEDIN U RECEPTOR AGONISTS AND USES THEREOF” (priority 2006, published 2010).
“Also recorded” adds a separate entry of the source. Non-standard residues stand in square brackets, D forms with d. (PEG)2 40 kDa = branched PEG of 40 kDa linked via the Cys side-chain thiol (code C2 = Cys(PEG)2 40 kDa)

Columns and labels:
diet-induced obese mice = assay: Feeding study in diet-induced obese mice (food intake, body weight); type: in vivo; settings: for % Food intake (FI) reductions Day 1: Day 1, based on vehicle responses; for % Food intake (FI) reductions Day 2: Day 2, based on vehicle responses; for % Food intake (FI) reductions Day 3: Day 3, based on vehicle responses; for body weight / duration of reductions in food intake: single acute subcutaneous administration; for anorectic effect: acute administration
Excerpt: NMUR1 knockout (Nmur1−/−) mice were generated using standard homologous recombination techniques. Nmur1 mice were subsequently transferred to Taconic Farms where they were either maintained on a 75% C57BL/6×25% 129S6/SvEv mixed genetic background or backcrossed six generations to C57BL/6. NMUR2 knockout (Nmur2−/−) mice were licensed from Deltagen Inc., San Mateo, Calif. and subsequently transferred to Taconic Farms where they were either maintained on a 75% C57BL/6×25% 129/OlaHsd mixed genetic background or backcrossed for seven generations to C57BL/6. NMUR1 and NMUR2 double knockout (Nmur1&2−/−) mice were generated by crossing N6 Nmur1−/− mice to N7 Nmur2−/− mice. Mice were individually housed in Tecniplast cages in a conventional SPF facility. Mice were initially maintained on a regular chow diet and then early in their life were switched to a high fat diet (D12492: 60% kcal from fat; Research Diets, Inc., New Brunswick, N.J.) with ad libitum access to water in a 12-hour light/12-hour dark cycle.
Ad libitum fed male diet-induced obese mice were weighed and dosed either i.p. or s.c. about 30 minutes prior to the onset of the dark phase of the light cycle and provided with a preweighed aliquot of high fat diet D12492 which was then weighed 2 hours and 18 hours (day 1), 42 hours (day 2), 66 hours (day 3), and 90 hours (day 4) after the onset of the initial dark phase. Mice were weighed at the 18, 42, 66 and 90 hour time points.

[1] = Pharmacokinetic analysis using the FLIPR bioassay; type: in vivo; settings: mice, 10 mg/kg subcutaneously, compared with hNMU-25
Method: Neuromedin U receptor agonist NMU12 exposure levels in dosed animals were measured using the bioassay and compared with hNMU-25 exposure levels. Animals were dosed subcutaneously with 10 mg/kg NMU12 or hNMU-25 and plasma was collected at various time points post-dose. The bioassay was a FLIPR-based assay, which was performed essentially as described above with the following modifications. Sample preparation prior to the assay was performed on ice to minimize degradation of plasma samples. The assay was run with 4% plasma as the final concentration. A three-point titration was done with the dosed plasma and tested on human NMUR1-expressing cell lines using FLIPR. The response after sample addition was taken as the maximum fluorescence units minus the fluorescence immediately prior to stimulation for each well. In addition to a three-point titration of dosed plasma samples, a 16-point titration of the peptide (hNMU-25 or NMU12) was run in 4% plasma (naive plasma) to serve as the standard. The concentration of the peptide in plasma was calculated based on extrapolations from the appropriate standard using the GraphPad Prism software.

hNMUR2 = hNMUR2 (Homo sapiens, UniProt Q9GZQ4); assay: FLIPR calcium mobilization assay, human NMUR2; type: cell-based; design: expressed in transfected cells; host or cells: FLP-In CHO or HEK-293 FLP-In cells (pcDNA5); HEK-293/aeq17 lines (pcDNA3.1) were also made; settings: human NMUR2
hNMUR2, sequence (Q9GZQ4 whole entry): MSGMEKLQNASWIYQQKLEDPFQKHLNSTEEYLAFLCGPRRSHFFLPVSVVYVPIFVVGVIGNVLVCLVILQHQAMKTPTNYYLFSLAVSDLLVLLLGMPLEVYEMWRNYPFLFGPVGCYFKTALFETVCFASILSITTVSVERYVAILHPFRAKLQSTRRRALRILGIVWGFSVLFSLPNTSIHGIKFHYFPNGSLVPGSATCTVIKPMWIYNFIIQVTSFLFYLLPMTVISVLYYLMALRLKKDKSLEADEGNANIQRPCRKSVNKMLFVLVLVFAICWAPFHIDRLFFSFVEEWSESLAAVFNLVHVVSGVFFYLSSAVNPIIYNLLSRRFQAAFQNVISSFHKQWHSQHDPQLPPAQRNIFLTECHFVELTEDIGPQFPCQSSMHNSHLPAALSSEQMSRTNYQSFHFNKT
Excerpt: (§1) Human, mouse or rat cDNAs encoding NMUR1 or NMUR2 (as described in Howard et al. Nature 406: 70-74 (2000) were subcloned in pcDNA5 (Invitrogen) and transfected into FLP-In CHO cells and HEK-293 FLP-In cells purchased from Invitrogen (Carlsbad, Calif.) using lipofectamine (Invitrogen). The Flp-In system allows integration and expression of a particular gene of interest at a specific genomic location utilizing the Flp recombinase from yeast. The transfected cells were selected by growth in medium containing 200 μg/mL hygromycin (Invitrogen). Populations were frozen at early passage numbers, and these stocks were used for further studies. Stable clones that expressed the mRNAs were identified functionally by FLIPR as well as by RT-PCR. […] Two different rodent NMUR1 cell lines were thus generated: one with the codon as predicted from the genomic databases and another cell line with an engineered methionine (ATG) as the start codon. Additionally, stable cell lines expressing the human receptors were generated in HEK-293/aeq17 cells which stably express the aequorin gene under the CMV promoter. The human NMUR2 cDNA was cloned into pcDNA3.1 and human NMUR1 was subcloned into pIRES-puro (Clontech, Mountain View, Calif.), after transfection cells were selected in media containing G418 and either hygromycin (NMUR2) or puromycin (NMUR1).
(§2) The NMU receptors signal primarily through Gαq/11 proteins; therefore calcium mobilization assays can be utilized for functional activity.
(§3) Stable cell lines expressing human and or rodent NMUR1 or human NMUR2 receptors were plated at a density of 12,000 cells per well overnight on poly-lysine coated 384-well black-walled plates. The following day, the media was removed from the plates and the cells were subsequently loaded with Fluo-3 (Molecular Probes), a calcium sensitive dye, diluted in FLIPR buffer (1× Hank's buffered saline containing 20 mM HEPES, 0.1% BSA, 2.5 mM probenecid (Sigma) and 1.6 mM TR40). All reagents are from Invitrogen unless otherwise noted. Peptide stocks were resuspended in DMSO at a stock concentration of 2 mM and diluted in FLIPR buffer on the day of the experiment to a 4 μM working stock solution.
(§4) After a 90 minute incubation at room-temperature, cell plates were loaded onto a FLIPR (Molecular Devices) to monitor cellular fluorescence (excitation=488 nm; emission=540 nm) before and after compound/peptide addition. Eight to twelve point dose responses were tested on NMUR-expressing cell lines using FLIPR with 1 μM peptide as the highest dose. The response after peptide addition was taken as the maximum fluorescence units minus the fluorescence immediately prior to stimulation for each well. EC50 values were calculated using GraphPad Prism (San Diego, Calif.) software.
(§5) In vitro responses of Neuromedin U receptor agonists (NMU1 to NMU25) in the FLIPR assay for human (Table 3), mouse (Table 4) and rat (Table 5) NMUR1 and NMUR2. EC50s are reported in nM values. Percent activity refers to the maximum response at 1 μM compared to the hNMU-25 response at the same concentration. NT=not tested.

hNMUR1 = biological target: T1, hNMUR1 (Homo sapiens, UniProt Q9HB89); assay: FLIPR calcium mobilization assay, human NMUR1; type: cell-based; design: expressed in transfected cells; host or cells: FLP-In CHO or HEK-293 FLP-In cells (pcDNA5); HEK-293/aeq17 lines (pIRES-puro) were also made; settings: human NMUR1
T1 sequence (Q9HB89 1-426): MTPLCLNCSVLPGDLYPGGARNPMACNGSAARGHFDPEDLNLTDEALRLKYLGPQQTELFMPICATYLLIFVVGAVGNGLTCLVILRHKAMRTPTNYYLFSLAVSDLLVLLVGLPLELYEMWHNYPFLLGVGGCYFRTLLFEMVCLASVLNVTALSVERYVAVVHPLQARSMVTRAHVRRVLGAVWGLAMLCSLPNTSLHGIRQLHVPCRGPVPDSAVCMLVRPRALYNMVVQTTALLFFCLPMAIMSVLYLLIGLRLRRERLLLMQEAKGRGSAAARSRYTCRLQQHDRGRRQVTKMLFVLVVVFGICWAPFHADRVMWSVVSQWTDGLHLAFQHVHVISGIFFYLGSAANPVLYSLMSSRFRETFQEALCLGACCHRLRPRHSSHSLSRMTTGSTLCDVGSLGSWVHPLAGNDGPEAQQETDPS
Excerpt: as §1, §2, §3, §4, §5

P1-FRVDEEFQSPFASQSRGYFLFRPRN-CONH2 ({branched PEG 40 kDa}-FRVDEEFQSPFASQSRGYFLFRPRN-NH2) [NMU1]
extension of serum half-life by PEGylation (diet-induced obese mice): three days | Body weight (BW) change (in grams) {relative to vehicle} Day 1 (diet-induced obese mice; 10 mg/kg): −1.4 grams | % Food intake (FI) reductions Day 1 (diet-induced obese mice; 10 mg/kg): 57% | Body weight (BW) change (in grams) {relative to vehicle} Day 2 (diet-induced obese mice; 10 mg/kg): −1.7 grams | % Food intake (FI) reductions Day 2 (diet-induced obese mice; 10 mg/kg): 56% | Body weight (BW) change (in grams) {relative to vehicle} Day 3 (diet-induced obese mice; 10 mg/kg): −0.4 grams | % Food intake (FI) reductions Day 3 (diet-induced obese mice; 10 mg/kg): 22% | efficacy at reducing overnight food intake compared to hNMU-25 (diet-induced obese mice; acute subcutaneous administration): greater efficacy | body weight (diet-induced obese mice): Significant reductions in body weight | duration of reductions in food intake (diet-induced obese mice): three days post-dose | half-life in human plasma: greater than three days

Ac-C2FRVDEEFQSPFASQSRGYFLFRPRN-CONH2 [NMU12] (Ac-C((PEG)2 40 kDa)FRVDEEFQSPFASQSRGYFLFRPRN-NH2)
Body weight (BW) change (in grams) {relative to vehicle} Day 1 (diet-induced obese mice; 10 mg/kg): −1.8 grams | % Food intake (FI) reductions Day 1 (diet-induced obese mice; 10 mg/kg): 51% | Body weight (BW) change (in grams) {relative to vehicle} Day 2 (diet-induced obese mice; 10 mg/kg): −1.3 grams | % Food intake (FI) reductions Day 2 (diet-induced obese mice; 10 mg/kg): 50% | Body weight (BW) change (in grams) {relative to vehicle} Day 3 (diet-induced obese mice; 10 mg/kg): −0.2 grams | % Food intake (FI) reductions Day 3 (diet-induced obese mice; 10 mg/kg): 15% | duration of reductions in food intake and body weight (diet-induced obese mice; NMUR1 knockout animals): two days post dose | duration of reductions in food intake and body weight (diet-induced obese mice; NMUR2 knockout animals): only overnight effects | anorectic effect (diet-induced obese mice; NMUR1/NMUR2 double knockout animals): no effect was observed | anorectic effect (diet-induced obese mice; wild-type animals): highly efficacious | cumulative food intake reduction relative to the vehicle treated group (diet-induced obese mice; chronic administration QD, Q2D or Q3D): 12-27% | food intake (diet-induced obese mice; peripheral administration, Nmur1 knockout mice): able to reduce food intake | crossing the blood-brain barrier (diet-induced obese mice; peripheral administration, inferred from knockout mice): capable of crossing the blood-brain barrier; also recorded: able to cross the blood-brain barrier | body weight (diet-induced obese mice): significant reduction | duration of reductions in food intake (diet-induced obese mice): three days | metabolic stability in vivo (plasma exposure) [1]: greater metabolic stability in vivo | half-life in human plasma: greater than three days

Ac-C2ASQSRGYFLFRPRN-CONH2 (Ac-C((PEG)2 40 kDa)ASQSRGYFLFRPRN-NH2) [NMU18, C2 = Cys(PEG)240 kDa]
extension of serum half-life by PEGylation (diet-induced obese mice): two days | Body weight (BW) change (in grams) {relative to vehicle} Day 1 (diet-induced obese mice; 10 mg/kg): −2.6 grams | % Food intake (FI) reductions Day 1 (diet-induced obese mice; 10 mg/kg): 71% | Body weight (BW) change (in grams) {relative to vehicle} Day 2 (diet-induced obese mice; 10 mg/kg): −0.2 grams | % Food intake (FI) reductions Day 2 (diet-induced obese mice; 10 mg/kg): 40%

Ac-C2FRVDEEFQSPFASQSRGYFaWRPRN-CONH2 (Ac-C((PEG)2 40 kDa)FRVDEEFQSPFASQSRGYF[dA]WRPRN-NH2) [NMU14, C2 = Cys(PEG)240 kDa; a = D-Alanine]
Body weight (BW) change (in grams) {relative to vehicle} Day 1 (diet-induced obese mice; 50 mg/kg): −0.1 grams

Ac-C3FRVDEEFQSPFASQSRGYFLFRPRN-CONH2 (Ac-CFRVDEEFQSPFASQSRGYFLFRPRN-NH2; not fully specified (residue 1); printed as Ac-C3FRVDEEFQSPFASQSRGYFLFRPRN-CONH2) [NMU10, C3 = cysteine linked to cholesterol via the side-chain thiol]
Body weight (BW) change (in grams) {relative to vehicle} Day 1 (diet-induced obese mice; 10 mg/kg): −1.2 grams | % Food intake (FI) reductions Day 1 (diet-induced obese mice; 10 mg/kg): 24%

Ac-C2GYFLFRPRN-CONH2 ({Ac-C(PEG 40 kDa)}-GYFLFRPRN-NH2) [NMU7, C2 = Cys(PEG)240 kDa]
Body weight (BW) change (in grams) {relative to vehicle} Day 1 (diet-induced obese mice; 10 mg/kg): −1.7 grams | % Food intake (FI) reductions Day 1 (diet-induced obese mice; 10 mg/kg): 44% | EC50 (hNMUR2; FLIPR): 36.1 nM | % Activity (hNMUR2; maximum response at 1 μM compared to hNMU-25): 91.8% | EC50 (hNMUR1; FLIPR): 79.6 nM | % Activity (hNMUR1; maximum response at 1 μM compared to hNMU-25 response at same concentration): 91.4%

Ac-C2-Ttds-FLFRPRN-CONH2 (Ac-CFLFRPRN-NH2; not fully specified (residue 1); printed as Ac-C2-Ttds-FLFRPRN-CONH2) [NMU16, C2 = Cys(PEG)240 kDa]
Body weight (BW) change (in grams) {relative to vehicle} Day 1 (diet-induced obese mice; 10 mg/kg): −0.3 grams | % Food intake (FI) reductions Day 1 (diet-induced obese mice; 10 mg/kg): 11% | Body weight (BW) change (in grams) {relative to vehicle} Day 1 (diet-induced obese mice; 30 mg/kg): −0.9 grams | % Food intake (FI) reductions Day 1 (diet-induced obese mice; 30 mg/kg): 25%
